Measured values reported in article PMC4055459, “Imatinib Treatment Causes Substantial Transcriptional Changes in Adult Schistosoma mansoni In Vitro Exhibiting Pleiotropic Effects” (PLoS Neglected Tropical Diseases, 2014).

Target: T1, SmAbl2-TK (SmAbl2) (Schistosoma mansoni, UniProt D1H0Y8)
T1 construct: gene abl2; capped cRNA injected into Xenopus laevis stage VI oocytes
T1 sequence (D1H0Y8 283-538 limits assumed): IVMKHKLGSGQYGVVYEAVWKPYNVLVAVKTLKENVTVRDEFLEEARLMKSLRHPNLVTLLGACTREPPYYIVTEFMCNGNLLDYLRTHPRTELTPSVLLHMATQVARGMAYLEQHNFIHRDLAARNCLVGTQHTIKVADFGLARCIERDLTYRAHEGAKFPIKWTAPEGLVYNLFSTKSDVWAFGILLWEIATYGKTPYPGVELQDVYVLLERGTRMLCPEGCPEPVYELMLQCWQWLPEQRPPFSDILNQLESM
Experiment: germinal vesicle breakdown (GVBD) assay, cRNA-injected Xenopus oocytes
Format: cell-based
Conditions: remaining GVBD-inducing activity; ND96, 19 °C, 18 h after injection, pools of 10 oocytes

Compound: CO[C@H]1[C@@H](OC)C[C@H](C)[C@@H](OC)C2=CC(=O)C=C(NC(=O)/C(C)=C/C=C\[C@H](OC)[C@@H](OC(N)=O)/C(C)=C/[C@@H]1C)C2=O [Herbimycin A]
- % GVBD at 10 μM: 90%
